Experimental findings from patent US10865207B2, “Compounds for imaging Tau protein aggregates” (AC IMMUNE S.A., priority 2016, dated 2020) are described below.

Data set [1] can be described thus: PK studies in healthy mice (dynamic PET). As to Good brain uptake (grade): key: −: poor; ∘: moderate; +: good; ++: very good; +++: excellent. As to Mouse PK De-fluorination (grade): key: −: poor; ∘: moderate; +: good; ++: very good; +++: excellent. As to Mouse PK Washout (grade): key: −: poor; ∘: moderate; +: good; ++: very good; +++: excellent. It is filed as in vivo, NMRI mice. Set-up: Good brain uptake (grade) / Mouse PK Uptake (grade): key: −: poor; ∘: moderate; +: good; ++: very good; +++: excellent. The note with it: for Mouse PK De-fluorination (grade) / Mouse PK Uptake (grade) / Mouse PK Washout (grade): Table 2; for bone uptake in shoulder joint at 60 min (de-fluorination) / peak uptake in brain (tracer uptake in healthy mice after iv injection) / ratio of uptake peak/30 min (washout from healthy brain): healthy mice; for bone uptake in shoulder joint at 60 min (de-fluorination): after iv injection; for peak uptake in brain (tracer uptake in healthy mice after iv injection): PET; for ratio of uptake peak/30 min (washout from healthy brain): Table 1: ratio of uptake at 2 min and 30 min. On the procedure:
NMRI mice (weight range 25-35 g) were injected intravenously with the ^18F-labeled compounds. Up to 150 μL of 1×PBS solution with 10%-15% EtOH or dilution medium ([…]) containing the ^18F-labeled compound (2-10 MBq) were injected. Anesthesia with isoflurane was induced before injection of the tracer and maintained during the image acquisition period. PET scans were performed using a SIEMENS INVEON small animal PET/CT scanner (Siemens, Knoxville, Tenn.). PET acquisition was started immediately before the radioactive dose was injected into the animal through the tail vein. Images were generated as dynamic scans for 60 minutes.
The peak uptake in the brain was set to 100% and washout curves were generated to evaluate the clearance of the activity from the normal brain (FIG. 2).

Data set [2] deals with T1, MAO A (Mus musculus, UniProt Q64133).
T1 construct: from tissue; host or cells: whole mouse brain homogenate
T1 sequence (Q64133 1-526): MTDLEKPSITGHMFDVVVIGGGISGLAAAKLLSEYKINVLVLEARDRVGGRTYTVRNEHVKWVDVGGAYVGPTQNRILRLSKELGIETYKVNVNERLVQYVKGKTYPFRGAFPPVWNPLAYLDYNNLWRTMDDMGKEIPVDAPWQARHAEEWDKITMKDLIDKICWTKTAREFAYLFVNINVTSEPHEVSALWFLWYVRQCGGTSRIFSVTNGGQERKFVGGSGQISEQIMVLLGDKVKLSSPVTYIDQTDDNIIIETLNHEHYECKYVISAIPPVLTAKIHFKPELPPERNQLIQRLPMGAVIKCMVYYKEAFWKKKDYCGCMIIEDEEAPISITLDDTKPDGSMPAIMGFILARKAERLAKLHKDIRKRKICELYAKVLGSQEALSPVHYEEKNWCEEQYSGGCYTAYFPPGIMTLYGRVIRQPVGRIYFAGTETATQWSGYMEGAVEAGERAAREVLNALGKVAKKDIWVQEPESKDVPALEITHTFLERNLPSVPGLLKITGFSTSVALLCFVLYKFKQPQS
The experiment in a line: MAO A 18F-FEH competition assay in mouse brain homogenate. The following applies: for low MAO A binding (grade): Table 2, IC50 in mouse brain homogenate. It counts as binding.

The target of data set [3] is Tau (Homo sapiens, UniProt P10636). Briefly: Competition binding to Tau in human AD brain homogenate with 18F-labeled Tau binder. As to high Tau binding (grade): key: −: poor; ∘: moderate; +: good; ++: very good; +++: excellent. The following applies: for binding affinity for Tau (in words): IC50 determined in AD brain homogenate; for high Tau binding (grade): Table 2, fluorine-19 derivatives. The procedure:
20 μg of human Alzheimer disease brain homogenate was incubated with a dilution series of each test compound (1000 to 0.06 nM) in the presence of 800 Bq of ^18F-labeled Tau binder. The samples were shaken at 110 rpm for 45 min at 37° C. Samples were then filtered through GF/B 96 well filter plates and washed twice with 300 μL assay buffer (PBS containing 0.1% BSA and 2% DMSO). Thereafter, filter plates were sealed and a Fuji Film Imaging Plate (BAS-SR2025) was placed on top. The imaging plate was analyzed after overnight exposition using a Fuji Film BAS-5000. Non-specific signal was determined with samples containing ^18F-labeled Tau-reference binder in the presence of assay buffer without brain substrate and competitor. […] The unblocked ^18F-labeled Tau-binder signal was defined as total binding. IC50 values were calculated by Prism V6 (GraphPad) setting total binding to 100%.

Sequence of Tau (P10636 623-708 limits assumed): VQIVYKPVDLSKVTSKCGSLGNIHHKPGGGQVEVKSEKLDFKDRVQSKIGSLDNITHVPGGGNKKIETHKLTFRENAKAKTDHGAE

`Fc1cncc(-c2ccc3c(n2)[nH]c2ccncc23)c1` [Comparative Example 5 (F-5)]: in data set [1], the “Mouse PK De-fluorination (grade)” value is “+”, the “Mouse PK Uptake (grade)” value is on record as “++”, the “Mouse PK Washout (grade)” value was “+” and the “bone uptake in shoulder joint at 60 min (de-fluorination)” value (“bone uptake in shoulder joint at 60 min” below) is “(2.9% ID/g)”. For the same compound, in data set [1], the “peak uptake in brain (tracer uptake in healthy mice after iv injection)” value (“peak uptake in brain” for short) was “(5.3% ID/g)” and the “ratio of uptake peak/30 min (washout from healthy brain)” value (shortened to “ratio of uptake peak/30 min”) is reported as “(9.6)”. For the same compound, the “low MAO A binding (grade)” value in data set [2] is “+++”. For the same compound, in data set [3], the “binding affinity for Tau (in words)” value was “inferior” and the “high Tau binding (grade)” value was “++”.

For `Fc1ccncc1-c1ccc2c(n1)[nH]c1ccncc12` [Comparative Example 6 (F-6)], in data set [1], the “Mouse PK Uptake (grade)” value was “+++”, the “Mouse PK Washout (grade)” value is on record as “++”, the “bone uptake in shoulder joint at 60 min” value is “(4.8% ID/g)” and the “peak uptake in brain” value is on record as “(8.2% ID/g)”. The “ratio of uptake peak/30 min” value in data set [1] is given as “(14.5)”. The “low MAO A binding (grade)” value in data set [2] was “+++”. Further, in data set [3], the “binding affinity for Tau (in words)” value was “poor” and the “high Tau binding (grade)” value is recorded as “−”.

As for `Fc1cccc(-c2ccc3c(n2)[nH]c2ccncc23)n1` [Comparative Example 7 (F-7)], in data set [1], the “Mouse PK De-fluorination (grade)” value was “−”, the “Mouse PK Uptake (grade)” value is recorded as “+++”, the “bone uptake in shoulder joint at 60 min” value is reported as “(11.1% ID/g)” and the “peak uptake in brain” value was “(8.5% ID/g)”. For the same compound, the “ratio of uptake peak/30 min” value in data set [1] is recorded as “(7.0)”. In data set [2], the “selectivity over MAO A (in words)” value is “Inferior” and the “low MAO A binding (grade)” value is “+”. For the same compound, in data set [3], the “binding affinity for Tau (in words)” value is “inferior” and the “high Tau binding (grade)” value was “++”.

Consider `Fc1ccc(-c2ccc3c(n2)[nH]c2ccncc23)nc1` [Comparative Example 8 (F-8)], for which the “selectivity over MAO A (in words)” value in data set [2] is “Inferior”. Also, the “high Tau binding (grade)” value in data set [3] is recorded as “+++”.

For `Fc1ccnc(-c2ccc3c(n2)[nH]c2ccncc23)c1` [Comparative Example 9 (F-9)], the “low MAO A binding (grade)” value in data set [2] is given as “+++”. Besides, in data set [3], the “binding affinity for Tau (in words)” value was “inferior” and the “high Tau binding (grade)” value is given as “++”.

As for `Fc1cccnc1-c1ccc2c(n1)[nH]c1ccncc12` [Comparative Example 10 (F-10)], in data set [1], the “Mouse PK De-fluorination (grade)” value was “−”, the “Mouse PK Washout (grade)” value was “−”, the “bone uptake in shoulder joint at 60 min” value is recorded as “(6.2% ID/g)” and the “peak uptake in brain” value is given as “(2.1% ID/g)”. For the same compound, in data set [1], the “ratio of uptake peak/30 min” value is recorded as “(3.6)”. The “low MAO A binding (grade)” value in data set [2] is “+++”. For the same compound, in data set [3], the “binding affinity for Tau (in words)” value is “poor” and the “high Tau binding (grade)” value is given as “−”.

For the compound `Fc1ccc(-c2ccc3c(n2)[nH]c2ccncc23)cn1` [Compound F-2], in data set [1], the “Mouse PK De-fluorination (grade)” value is recorded as “−”, the “Mouse PK Uptake (grade)” value was “++”, the “Mouse PK Washout (grade)” value is given as “++” and the “bone uptake in shoulder joint at 60 min” value is given as “(6.2% ID/g)”. Also, in data set [1], the “peak uptake in brain” value is recorded as “(5.7% ID/g)” and the “ratio of uptake peak/30 min” value was “(10.9)”. In data set [2], the “selectivity over MAO A (in words)” value was “Inferior” and the “low MAO A binding (grade)” value is recorded as “+”. In addition, the “high Tau binding (grade)” value in data set [3] was “+++”.

`[18F]c1ccc(-c2ccc3c(c2)[nH]c2ccncc23)cn1` [Compound ^18F-1]: in data set [1] (Table 1), the “Good brain uptake (grade)” value was “++” and the “Low retention in healthy brain (grade)” value is on record as “−”.

Turning to `[18F]c1ccc(-c2ccc3c(n2)[nH]c2ccncc23)cn1` [Compound ^18F-2], in data set [1] (Table 1), the “Fast washout from healthy brain (grade)” value is recorded as “+”, the “Good brain uptake (grade)” value is “++” and the “Low or minor de-fluorination (grade)” value is recorded as “−”. For the same compound, the “De-fluorination in mice (in words)” value in data set [1] (mouse, in vivo) is given as “De-fluorination in mice was found”.
